From the NIST ThermoML archive (doi:10.1021/je800345j)
Numbers after ± are expanded uncertainties.

Tests used:
[1] = 298.15 K; 101.33 kPa; Liquid
[2] = refractive index (Na D-line) (dimensionless); conditions: 293.15 K; 101.33 kPa; Liquid; Standard Abbe refractometry

Row | mass density [1] [kg/m3] | refractive index [2] | Structure (SMILES)
1 | 927.8 ± 0.3 | 1.4033 ± 0.0004 | C=C(C)OC(C)=O [1-methylvinyl ethanoate]
2 | 971.9 ± 0.3 | 1.4491 ± 0.0004 | CC(=O)CC(C)=O [2,4-pentanedione]
3 | 1047.4 ± 0.3 | 1.372 ± 0.0004 | CC(=O)O [acetic acid]
